Test results reported in patent US8664257B2, “Oxygen-substituted 3-heteroaroylamino-propionic acid derivatives and their use as pharmaceuticals” (Sanofi, priority 2010, dated 2014).

Target: T1, Recombinant human cathepsin A (Homo sapiens, UniProt P10619)
T1 construct: Recombinant human cathepsin A (residues 29-480, with a C-terminal 10-His tag); 10-His (C); purchased R&D Systems 1049-SE
T1 sequence (P10619 29-312 limits assumed): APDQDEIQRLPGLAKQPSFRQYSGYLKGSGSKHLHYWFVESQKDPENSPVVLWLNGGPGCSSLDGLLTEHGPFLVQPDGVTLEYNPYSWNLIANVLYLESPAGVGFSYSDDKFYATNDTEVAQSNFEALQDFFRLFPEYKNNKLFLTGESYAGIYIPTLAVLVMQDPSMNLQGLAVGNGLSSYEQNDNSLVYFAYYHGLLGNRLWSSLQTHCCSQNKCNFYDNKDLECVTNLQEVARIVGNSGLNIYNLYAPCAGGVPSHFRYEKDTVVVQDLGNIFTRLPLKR
T1 sequence (P10619 327-480 limits assumed): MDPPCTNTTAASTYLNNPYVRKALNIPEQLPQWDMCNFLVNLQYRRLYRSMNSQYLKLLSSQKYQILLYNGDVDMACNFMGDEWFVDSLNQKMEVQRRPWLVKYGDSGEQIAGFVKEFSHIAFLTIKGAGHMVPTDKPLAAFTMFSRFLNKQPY
Assay: Cathepsin A inhibitory activity
Type: biochemical
Conditions: pharmacological test "Cathepsin A inhibitory activity"; IC50 given as class A/B/C; read-out: Activity (2): Cathepsin A inhibitory activity, IC50 class
How it was run: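 Human cathepsin A (res. 29-480, C-His10) pre-activated with cathepsin L (MES pH 6.0, DTT, 15 min, 37 °C; quenched with 10 μM E-64). Enzyme (833 ng/ml) preincubated 15 min RT with compound in MES pH 5.5/DTT, then 2 μM Bodipy FL-bradykinin for 15 min RT. Capillary electrophoresis product/substrate peak areas; IC50 from % inhibition.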

| IC50 [nM] | Compound |
| --- | --- |
| 1000 to 30000 | Cc1ccccc1[C@H](CC(=O)O)NC(=O)c1cc(O)n(-c2cccnc2)n1 [Example 143] |
| 1000 to 30000 | O=C(O)C[C@H](NC(=O)c1cc(O)n(-c2ccccc2)n1)c1cccc(F)c1 [Example 166] |
| 100 to 1000 | O=C(O)CC(NC(=O)c1cc(O)n(-c2ccccc2F)n1)c1ccccc1F (centres unmarked) [Example 233] |

Further lines, the compound ahead of its results:

| Compound | IC50 [nM] |
| --- | --- |
| O=C(O)CC(NC(=O)c1cc(O)n(-c2ccccc2F)n1)c1cccc(OCc2ccccc2)c1 (centres unmarked) [Example 229] | 1000 to 30000 |
| O=C(O)CC(NC(=O)c1cc(O)n(-c2ccc(F)cc2F)n1)c1cccc(C(F)(F)F)c1Cl (centres unmarked) [Example 193] | 100 to 1000 |
| O=C(O)C[C@H](NC(=O)c1cc(O)n(-c2ccc(F)cc2F)n1)c1ccc(Cl)cc1Cl [Example 201] | 100 to 1000 |
| O=C(O)C[C@H](NC(=O)c1cc(O)n(-c2ccccc2Cl)n1)c1ccc(-c2ccc(F)cc2)cc1 [Example 148] | 1000 to 30000 |

Same assay, conditions: read-out: Activity (2): Cathepsin A inhibitory activity (IC50 class)

| IC50 [nM] | Compound |
| --- | --- |
| 100 to 1000 | Cc1ccccc1[C@H](CC(=O)O)NC(=O)c1cc(O)n(C2CCCC2)n1 [Example 572] |
| < 100 | CCOc1cc(C(=O)N[C@@H](CC(=O)O)c2ccccc2F)nn1-c1ccccc1F [Example 720] |
| < 100 | Cc1ccccc1[C@H](CC(=O)O)NC(=O)c1cc(OC2CCCC2)n(-c2ccccc2F)n1 [Example 626] |
| < 100 | O=C(O)C[C@H](NC(=O)c1cc(OCC2CC2)n(-c2ccccc2F)n1)c1ccccc1Cl [Example 696] |
| < 100 | COc1cccc([C@H](CC(=O)O)NC(=O)c2cc(OC[C@@](C)(O)C(C)C)n(-c3ccccc3F)n2)c1OC [Example 769] |
| < 100 | O=C(O)C[C@H](NC(=O)c1cc(OCC2CC2)n(-c2ccccc2F)n1)c1ccc(C(F)(F)F)cc1 [Example 694] |
| < 100 | COc1cc(C(=O)N[C@@H](CC(=O)O)c2ccc(C)cc2)nn1-c1ccccc1F [Example 675] |
| 1000 to 30000 | O=C(O)CC(NC(=O)c1cc(O)n(-c2ccccc2)n1)c1ccc(-n2cncn2)cc1 (centres unmarked) [Example 563, 3-[(5-Hydroxy-1-phenyl-1H-pyrazole-3-carbonyl)-amino]-3-(4-[1,2,4]triazol-1-yl-phenyl)-propionic acid] |
| 1000 to 30000 | O=C(O)CC(NC(=O)c1cc(O)n(-c2ccccc2)n1)c1ccc(N2CCCC2)cc1 (centres unmarked) [Example 565, 3-[(5-Hydroxy-1-phenyl-1H-pyrazole-3-carbonyl)-amino]-3-(4-pyrrolidin-1-yl-phenyl)-propionic acid] |
| < 100 | CCOc1cc(C(=O)NC(CC(=O)O)c2ccc(C)cc2C)nn1-c1ccccc1F (centres unmarked) [Example 708] |
| 1000 to 30000 | COc1ccc(F)c(C(CC(=O)O)NC(=O)c2cc(O)n(-c3ccccc3)n2)c1 (centres unmarked) [Example 547, 3-(2-Fluoro-5-methoxy-phenyl)-3-[(5-hydroxy-1-phenyl-1H-pyrazole-3-carbonyl)-amino]-propionic acid] |

| Compound | IC50 [nM] |
| --- | --- |
| Cc1ccc([C@H](CC(=O)O)NC(=O)c2cc(OC[C@H](O)C(C)(C)C)n(-c3ccccc3F)n2)cc1 [Example 788, (S)-3-{[1-(2-Fluoro-phenyl)-5-((R)-2-hydroxy-3,3-dimethyl-butoxy)-1H-pyrazole-3-carbonyl]-amino}-3-p-tolyl-propionic acid] | < 100 |

Same assay, conditions: read-out: Activity (2): Cathepsin A inhibitory activity, IC50 class

| IC50 [nM] | Compound |
| --- | --- |
| 100 to 1000 | COc1ccccc1[C@H](CC(=O)O)NC(=O)c1cc(O)n(-c2cccc(F)c2)n1 [Example 307] |
| 100 to 1000 | O=C(O)C[C@H](NC(=O)c1cc(O)n(-c2ccccc2)n1)c1ccc(C(F)(F)F)cc1 [Example 99] |
| 100 to 1000 | Cc1cc(F)ccc1C(CC(=O)O)NC(=O)c1cc(O)n(-c2cccc(F)c2)n1 (centres unmarked) [Example 326] |
| 100 to 1000 | O=C(O)CC(NC(=O)c1cc(O)n(-c2ccccc2)n1)c1cccnc1 (centres unmarked) [Example 16] |
| 100 to 1000 | Cc1cccc([C@H](CC(=O)O)NC(=O)c2cc(O)n(-c3ccccc3F)n2)c1 [Example 404] |
| 100 to 1000 | COc1ccc(Cl)cc1C(CC(=O)O)NC(=O)c1cc(O)n(-c2ccc(F)cc2)n1 (centres unmarked) [Example 344] |
| 100 to 1000 | O=C(O)C[C@H](NC(=O)c1cc(O)n(-c2ccc(F)cc2)n1)c1ccccc1C(F)(F)F [Example 367] |
| 100 to 1000 | COc1ccc(C(CC(=O)O)NC(=O)c2cc(O)n(-c3ccc(F)cc3F)n2)c(C)c1 (centres unmarked) [Example 379] |
| 100 to 1000 | Cc1ccc(C(CC(=O)O)NC(=O)c2cc(O)n(-c3cccc(F)c3)n2)c(C)c1 (centres unmarked) [Example 325] |

Second part, the compound before the results:

| Compound | IC50 [nM] |
| --- | --- |
| Cc1ccc(C)c(-n2nc(C(=O)NC(CC(=O)O)C3CCOCC3)cc2O)c1 (centres unmarked) [Example 43] | 1000 to 30000 |
| Cc1cccc(C(CC(=O)O)NC(=O)c2cc(O)n(-c3ccc(F)cc3)n2)c1C (centres unmarked) [Example 358] | 100 to 1000 |
| COc1ccc([C@H](CC(=O)O)NC(=O)c2cc(O)n(-c3ccc(F)cc3F)n2)cn1 [Example 390] | 100 to 1000 |
| O=C(O)C[C@H](NC(=O)c1cc(O)n(-c2ccc(F)cc2)n1)c1c(F)cccc1F [Example 368] | 100 to 1000 |
| O=C(O)C[C@H](NC(=O)c1cc(O)n(-c2ccc(F)cc2)n1)c1ccc(F)cc1 [Example 346] | 1000 to 30000 |
| O=C(O)CC(NC(=O)c1cc(O)n(-c2ccccc2F)n1)c1ccc(Oc2ccccc2)cc1 (centres unmarked) [Example 124] | 100 to 1000 |
| O=C(O)C[C@H](NC(=O)c1cc(O)n(-c2ccc(F)cc2)n1)c1cccc(F)c1 [Example 349] | 100 to 1000 |
| COc1ccc(C(CC(=O)O)NC(=O)c2cc(O)n(-c3cc(C)ccc3C)n2)cc1 (centres unmarked) [Example 27] | 1000 to 30000 |

Same assay, conditions: recombinant human cathepsin A 833 ng/ml, Bodipy FL-labeled bradykinin 2 μM, pH 5.5; read-out: CATH-A IC50

| IC50 [nM] | Compound |
| --- | --- |
| 128 | O=C(O)CC(NC(=O)c1cc(O)n(-c2ccccc2Cl)n1)c1cc(F)ccc1F (centres unmarked) [Example 459, 3-{[1-(2-Chloro-phenyl)-5-hydroxy-1H-pyrazole-3-carbonyl]-amino}-3-(2,5-difluoro-phenyl)-propionic acid] |
| 167 | O=C(O)CC(NC(=O)c1cc(O)n(-c2ccccc2)n1)c1cccc2c1OC(F)(F)O2 (centres unmarked) [Example 496, 3-(2,2-Difluoro-benzo[1,3]dioxol-4-yl)-3-[(5-hydroxy-1-phenyl-1H-pyrazole-3-carbonyl)-amino]-propionic acid] |
| 120 | O=C(O)C[C@H](NC(=O)c1cc(O)n(-c2ccccc2)n1)c1ccccc1Cl [Example 446, (S)-3-(2-Chloro-phenyl)-3-[(5-hydroxy-1-phenyl-1H-pyrazole-3-carbonyl)-amino]-propionic acid] |
| 1390 | COc1ccc(F)c(C(CC(=O)O)NC(=O)c2cc(O)n(-c3ccccc3)n2)c1 (centres unmarked) [Example 547, 3-(2-Fluoro-5-methoxy-phenyl)-3-[(5-hydroxy-1-phenyl-1H-pyrazole-3-carbonyl)-amino]-propionic acid] |

Further lines, the compound ahead of its results:

| Compound | IC50 [nM] |
| --- | --- |
| O=C(O)CC(NC(=O)c1cc(O)n(-c2ccccc2)n1)c1ccc(-n2cncn2)cc1 (centres unmarked) [Example 563, 3-[(5-Hydroxy-1-phenyl-1H-pyrazole-3-carbonyl)-amino]-3-(4-[1,2,4]triazol-1-yl-phenyl)-propionic acid] | 1740 |
| O=C(O)CC(NC(=O)c1cc(O)n(-c2ccccc2)n1)c1ccc(N2CCCC2)cc1 (centres unmarked) [Example 565, 3-[(5-Hydroxy-1-phenyl-1H-pyrazole-3-carbonyl)-amino]-3-(4-pyrrolidin-1-yl-phenyl)-propionic acid] | 5020 |

Same assay, conditions: recombinant human cathepsin A; read-out: Activity (2): Cathepsin A inhibitory activity, IC50 class

| IC50 [nM] | Compound |
| --- | --- |
| 100 to 1000 | O=C(O)CC(NC(=O)c1cc(O)n(-c2ccccc2Cl)n1)c1cc(F)ccc1F (centres unmarked) [Example 459, 3-{[1-(2-Chloro-phenyl)-5-hydroxy-1H-pyrazole-3-carbonyl]-amino}-3-(2,5-difluoro-phenyl)-propionic acid] |
| 100 to 1000 | O=C(O)C[C@H](NC(=O)c1cc(O)n(-c2ccccc2F)n1)c1ccccc1Cl [Example 519] |
| 100 to 1000 | O=C(O)CC(NC(=O)c1cc(O)n(-c2ccccc2)n1)c1cccc2c1OC(F)(F)O2 (centres unmarked) [Example 496, 3-(2,2-Difluoro-benzo[1,3]dioxol-4-yl)-3-[(5-hydroxy-1-phenyl-1H-pyrazole-3-carbonyl)-amino]-propionic acid] |
| 100 to 1000 | O=C(O)C[C@H](NC(=O)c1cc(O)n(-c2ccccc2)n1)c1ccccc1Cl [Example 446, (S)-3-(2-Chloro-phenyl)-3-[(5-hydroxy-1-phenyl-1H-pyrazole-3-carbonyl)-amino]-propionic acid] |
| 100 to 1000 | Cc1ccc([C@H](CC(=O)O)NC(=O)c2cc(O)n(-c3cccc(F)c3)n2)cc1 [Example 489] |

Further lines, the compound ahead of its results:

| Compound | IC50 [nM] |
| --- | --- |
| COc1cc(C(=O)N[C@@H](CC(=O)NCC(C)(C)CO)c2ccccc2C)nn1-c1ccccc1F [Example 925, 1-(2-Fluoro-phenyl)-5-methoxy-1H-pyrazole-3-carboxylic acid [(S)-2-(3-hydroxy-2,2-dimethyl-propylcarbamoyl)-1-o-tolyl-ethyl]-amide] | 1000 to 30000 |
| COc1cc(C(=O)N[C@@H](CC(=O)N[C@H](C)C(C)C)c2ccccc2C)nn1-c1ccccc1F [Example 939, 1-(2-Fluoro-phenyl)-5-methoxy-1H-pyrazole-3-carboxylic acid [(S)-2-((R)-1,2-dimethyl-propylcarbamoyl)-1-o-tolyl-ethyl]-amide] | < 100 |
| O=C(O)CC(NC(=O)c1cc(O)n(-c2cccc(Cl)c2)n1)c1cccc(Cl)c1 (centres unmarked) [Example 408] | 100 to 1000 |
